Results as given in patent US20030181659A1, “Thrombopoietin receptor modulating peptide” (priority 2000, published 2003).
Where two headings read alike, the source gives them in different places. Where a SMILES comes first, the peptide text is derived from it.

Assays:
[1] = target: T1, TPO-R (Homo sapiens, UniProt P40238); assay: In vitro signalling assay, dose response (STAT5 phosphorylation); assay type: cell-based; settings: dose response 0.3 nM to 30 μM
T1 construct: endogenous in cells; host or cells: TF-1 cells
T1 sequence (P40238 26-635): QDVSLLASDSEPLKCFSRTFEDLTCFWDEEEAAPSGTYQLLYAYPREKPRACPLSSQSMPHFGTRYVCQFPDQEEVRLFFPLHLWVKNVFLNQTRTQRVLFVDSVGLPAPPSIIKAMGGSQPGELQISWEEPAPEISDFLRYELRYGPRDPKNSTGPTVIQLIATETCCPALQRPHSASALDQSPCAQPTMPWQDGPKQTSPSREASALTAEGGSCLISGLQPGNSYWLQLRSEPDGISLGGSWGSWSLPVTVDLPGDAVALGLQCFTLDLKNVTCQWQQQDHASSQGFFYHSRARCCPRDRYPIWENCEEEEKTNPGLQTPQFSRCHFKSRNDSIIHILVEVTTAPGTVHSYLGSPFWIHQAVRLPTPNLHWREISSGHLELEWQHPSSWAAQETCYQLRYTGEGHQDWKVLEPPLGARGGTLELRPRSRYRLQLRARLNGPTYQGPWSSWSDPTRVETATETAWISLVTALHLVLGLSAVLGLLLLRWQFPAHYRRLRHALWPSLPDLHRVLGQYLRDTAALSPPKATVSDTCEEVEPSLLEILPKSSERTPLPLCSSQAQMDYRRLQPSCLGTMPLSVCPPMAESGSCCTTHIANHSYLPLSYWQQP
Description: (§1) Treatment of the cells: TF-1 cells were grown to an approximate density of 1×10^6 cells in RPMI 1640 media with 1× Penicillin/Streptomycin, 2 mM glutamin, 10% fetal bovine serum (Hyclone) and 1 ng/ml GM-CSF, centrifuged down and resuspended in media with 3% serum and no GM-CSF. The cells were starved for 14-18 hours at 37° C. (5% CO2), spun down and resuspended at a density of 1×10^6 cells/ml in a medium without serum and GM-CSF. 2 ml of cell suspension was treated with the oligopeptide or TPO (as indicated per experiment) at 37° C. for 30 min. (5% CO2). 10 ml of ice-cold cell wash buffer was added per Falcon tube and centrifuged down quickly at 4° C. and 3000 rpm,. The medium was carefully aspirated and the wash repeated twice with PBS.
The following steps were performed on ice. The medium was aspirated and 0.6 ml of 2× lysis buffer per tube was added. This was pipetted up and down and transferred to Eppendorf tubes, placed on ice for circa 30 min., and centrifuged at 14,000×g for 10 min. The supernatant (lysate) was used in immunoprecipitations.
Immunoprecipitations: 20-40 μL of GammaBind G Sepharose slurry was used per immunoprecipitation. The protein G beads were washed several times with 0.5× lysis buffer in Eppendorf tubes and 1-4 μg of PY-99 antibody (Santa Cruz-Biotechnology) was added per immunoprecipitation. The tubes were incubated with end-over-end rotation for 2 h at room temperature. The lysate was added and the tubes further incubated with end-over-end rotation overnight at 4° C. The beads were washed 3 times with 1× lysis buffer and once with 0.5 M Tris pH 6.5. 50 μl of SDS-sample buffer was added and the samples were boiled for 3 min prior to being applied to the gels.
Western blot analysis: about 10 μl/sample was run on a 8% Polyacrylamide mini gel, transferred to PVDF membrane (Millipore), blocked for 1 h in blocking buffer and incubated with αSTAT5 antibody (Santa Cruz-Biotechnology) overnight at 4° C. in an 1:1000 dilution. The membrane was washed, incubated with appropriate alkaline phosphatase conjugated secondary antibody, 1:2000 dilution at room temperature for 2 h. The PVDF-membrane was washed with Blotto and developed with NBT/BCIP (Cappel).
Dose-response curves of the present oligopeptides were performed and their activity was compared to the wild type TPO-Rp.
Peptide dose response activity was evaluated primarily by in vitro signalling assays. Phosphorylation and thus activation of STAT5, a substrate of JAK2 kinase that is activated by TPO-Rp signal transduction, was measured. Each oligopeptide activity was addressed through a broad range of concentrations. Peptides were tested at concentrations of 0.3, 3, 10, 30 nM and 0.1, 0.3, 3 and 30 μM TPO-Rp. Oligopeptide activity as a measurement of STAT5 phosphorylation in each experiment was compared to activity obtained with 10 ng/ml of TPO, a hormone concentration that gives a maximal activation and signalling through TPO-R. All the peptides were evaluated four to five times in independent experiments. All the data was collected, Western blots were scanned and the intensity of the STAT5 phosphorylation was quantified.
The activity of each oligopeptide was addressed as percent of its maximum activity; thus 100% activity was assigned to the value of STAT5 protein phosphorylation obtained with 30 μM oligopeptide concentration.

[2] = tested on: carboplatin treated mice; assay type: in vivo; settings: for effects on other blood components: mouse, in vivo
Description: The model used for the in vivo experiments was reported previously (Akahori et al. (1996) Stem Cells 14:678-689, Akahori et al. (1996) Br. J. Haematol. 94:722-728, Shibuya et al. (1998) Blood 91:37-45, Andrews et al. (1996) Stem Cells 14:661-677). Improvements and modifications that were introduced are indicated below.
Each test group (PBS, TPO, or TPO-Rp) was given as a single daily dose administered by intraperitoneal injection. Daily doses were begun on day 0 and continued throughout the duration of the experimental period (day 10). Two i.p. injections of carboplatin 90 mg/kg each (PBS for group 11) were given on days 0 and 4.
Blood collections were taken on days −0 (basal), 8, 11, 14, and 18. Blood was obtained by sampling from the tail of mice (8 week old male […] mice), followed by cauterisation. A volume of 80 μl of blood from each mouse was collected into a heparinized blood collection tube. The 80 μl of blood was then mixed with 160 μl of saline containing sufficient EDTA (0.225%) to provide for anticoagulation.
[…] Carboplatin is used to induce thrombocytopenia. In order to work with a model that is as similar as possible to clinical situations, a previously reported carboplatin model (Akahori et al. (1996) Stem Cells 14:678-689, Akahori et al. (1996) Br. J. Haematol. 94:722-728, Shibuya et al. (1998) Blood 91:37-45, Andrews et al. (1996) Stem Cells 14:661-677) has been carefully studied and modified accordingly. Additionally, a method for animal bleeds has been carefully studied, in order to work with animals that show the highest response to a given drug and which are at the same time under a minimum of stress (see Methods above). Thus, the dose of carboplatin has been increased to 180 mg/kg and was given by two intraperitoneal (i.p) injections on day 0 (half-dose) and day 4 (second half-dose). Carboplatin induced severe thrombocytopenia on day eight.

[3] = tested on: carboplatin treated mice; assay: Carboplatin (200 mg/kg) induced thrombocytopenia in mice; assay type: in vivo; settings: for platelet number: carboplatin 200 mg/kg
Description: Each test group was given a single daily dose administered by intraperitoneal injection. Daily doses were begun on day 0 and continued throughout the duration of the experimental period (day 13). Minimal doses were given on indicated days: 0 and 4; 0, 4 and 8; 0, 4, 8 and 12; days 8 through 14. Two i.p. injections of carboplatin 100 mg/kg were given on days 0 and 4.
Blood collections were taken on days 0 (basal), 8, 11, 14 and 18. Blodd was obtained by sampling from the tails of mice (8 week old male C57BL/6J mice) followed by cauterisation. A volume of 80 μl of blood from each mouse was collected into a heparinized blood collection tube. The 80 μl of blood was then mixed with 160 μl of saline containing sufficient EDTA (0.225%) to provide for anticoagulation.
The dose of carboplatin has been increased to 200 mg/kg and was given as a cumulative dose by two intraperitoneal (i.p.) injections on day 0 (half-dose) and day 4 (second half-dose). Carboplatin induced severe thrombocytopenia on day eleven.

[4] = target: T1, TPO-R; assay: In vitro signalling assay (STAT5 phosphorylation in TF-1 cells) of stored peptide samples; assay type: cell-based; settings: day 30, solution in water stored at −20° C.
Description: as §1
The following steps were performed on ice. The medium was aspirated and 0.6 ml of 2× lysis buffer per tube was added. […]
The activity of the oligopeptides of the present invention and wild type TPO-Rp was examined by in vitro signalling assays. […] Phosphorylation and thus activation of STATS, a substrate of JAK2 kinase that is activated by TPO-R signal transduction, was measured. […] All the peptides were evaluated three to four times in independent experiments. All the data were collected, Western blots were scanned, and intensity of the STAT5 phosphorylation was quantified.

[5] = target: thrombopoietin receptor (TPO-R) on TF-1 cells (UniProt P40238); assay: cell-based or functional assay

Compound: SEQ ID No. 1: oligopeptide A1-L18 of wild type TPO-Rp, 18 amino acids, without R9A, R11A substitutions (ARGGTLELRPRSRYRLQL; listed as Homo sapiens)
- activity compared to wild type TPO-Rp (STAT5 phosphorylation) [1]: activity comparable to the wild type TPO-Rp

Compound: CC(C)C[C@H](NC(=O)[C@H](CCC(N)=O)NC(=O)[C@H](CC(C)C)NC(=O)[C@H](CCCNC(=N)N)NC(=O)[C@H](Cc1ccc(O)cc1)NC(=O)[C@H](CCCNC(=N)N)NC(=O)[C@H](CO)NC(=O)[C@H](C)NC(=O)[C@@H]1CCCN1C(=O)[C@H](C)NC(=O)[C@H](CC(C)C)NC(=O)[C@H](CCC(=O)O)NC(=O)[C@H](CC(C)C)NC(=O)[C@@H](NC(=O)CN)[C@@H](C)O)C(=O)O [SEQ ID No. 4] (H-GTLELAPASRYRLQL-OH; N-terminus and C-terminus assumed)
- effect on platelet levels / thrombocytopenia ([2]; dose not given, carboplatin 180 mg/kg): some effect on platelet levels
- effects on other blood components [2]: None of the peptides used
- activity compared to wild type TPO-Rp (STAT5 phosphorylation) [1]: retained activity comparable to wild type TPO-Rp

Compound: SEQ ID No. 3: shortest oligopeptide, 15 amino acids long, G4-L18 of wild type TPO-Rp (GTLELRPRSRYRLQL; listed as Homo sapiens)
- activity compared to wild type TPO-Rp (STAT5 phosphorylation) [1]: retained activity comparable to wild type TPO-Rp

Compound: SEQ ID No. 5: oligopeptide G4-R21 of wild type TPO-Rp (GTLELRPRSRYRLQLRAR; listed as Homo sapiens)
- activity compared to wild type TPO-Rp (STAT5 phosphorylation) [1]: activity identical to wild type TPO-Rp

Compound: SEQ ID No. 6: oligopeptide G4-R21 of wild type TPO-Rp, R9A, R11A form (GTLELAPASRYRLQLRAR; listed as Homo sapiens)
- activity compared to wild type TPO-Rp (STAT5 phosphorylation) [1]: activity identical to wild type TPO-Rp

Compound: TPO: thrombopoietin, natural hormone, glycoprotein ligand of c-mpl (TPO-R)
- platelet number ([2]; 2.4 μg/kg/day i.p. daily, carboplatin 180 mg/kg): unable to prevent a decrease in platelets
- platelet number ([3]; 2.4 μg/kg/day days 0 through 13): again unable to protect decrease in platelets
- platelet number ([3]; 10 μg/kg/day days 0 through 13): some effect that does have statistical significance
- effect on thrombocytopenia ([3]; 10 μg/kg/day from day 8 through 14, carboplatin from day 0): did not show a significant effect on thrombocytopenia

Compound: CC(C)C[C@H](NC(=O)[C@H](CCCNC(=N)N)NC(=O)[C@H](C)NC(=O)[C@H](CCCNC(=N)N)NC(=O)[C@H](CC(C)C)NC(=O)[C@H](CCC(N)=O)NC(=O)[C@H](CC(C)C)NC(=O)[C@H](CCCNC(=N)N)NC(=O)[C@H](Cc1ccc(O)cc1)NC(=O)[C@H](CCCNC(=N)N)NC(=O)[C@H](CO)NC(=O)[C@H](CCCNC(=N)N)NC(=O)[C@@H]1CCCN1C(=O)[C@H](CCCNC(=N)N)NC(=O)[C@H](CC(C)C)NC(=O)[C@H](CCC(=O)O)NC(=O)[C@H](CC(C)C)NC(=O)[C@@H](NC(=O)CNC(=O)CNC(=O)[C@H](CCCNC(=N)N)NC(=O)[C@H](C)N)[C@@H](C)O)C(=O)N[C@@H](CC(N)=O)C(=O)O [TPO-Rp wild type, ARGGTLELRPRSRYRLQLRARLN] (H-ARGGTLELRPRSRYRLQLRARLN-OH; N-terminus and C-terminus assumed)
- platelet (thrombocyte) number, percent change from basal ([2]; 30 μg/kg/day i.p. daily from day 0, carboplatin 180 mg/kg): significantly increased the thrombocyte number
- platelet (thrombocyte) number, percent change from basal ([2]; 300 μg/kg/day i.p. daily from day 0, carboplatin 180 mg/kg): significantly increased the thrombocyte number
- survival rate of treated animals ([2]; CHI-square analysis, carboplatin 180 mg/kg): statistically significant survival rate
- effects on other blood components [2]: None of the peptides used
- activity (STAT5 phosphorylation) after storage [4]: significant decrease in activity

Compound: thrombopoietin (TPO) (from UniProt P40225 22-353) (ligand)
- STAT5 phosphorylation in TF-1 cells; TPO concentration giving maximal activation [5]: 10 ng/mL
